Assay results from PubChem BioAssay (NCI).
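Grown in 96-well plates, cells were treated for 48 hours with each compound at five concentrations. Insufficient inhibition: endpoint recorded as highest concentration tested. TGI: concentration producing complete growth inhibition.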

Key:
Experiment in all cases: growth of human tumour cells (NCI), 48 h
SK-OV-3 ovarian = test system: SK-OV-3 ovarian
M14 melanoma = test system: M14 melanoma
786-0 renal = test system: 786-0 renal
U251 CNS = test system: U251 CNS
ACHN renal = test system: ACHN renal
UO-31 renal = test system: UO-31 renal
RPMI-8226 leukemia = test system: RPMI-8226 leukemia
NCI-H460 lung = test system: NCI-H460 lung
SF-295 CNS = test system: SF-295 CNS
A498 renal = test system: A498 renal

Structure (SMILES)	TGI (SK-OV-3 ovarian)	TGI (M14 melanoma)	TGI (786-0 renal)	TGI (U251 CNS)	TGI (ACHN renal)	TGI (UO-31 renal)	TGI (RPMI-8226 leukemia)	TGI (NCI-H460 lung)	TGI (SF-295 CNS)	TGI (A498 renal)
CC1=NN(C(=O)CC(=O)Nc2ccccc2Cl)C(=O)C1N=Nc1ccc(S(=O)(=O)c2ccc(N=NC3C(=O)N(C(=O)CC(=O)Nc4ccccc4Cl)N=C3C)cc2)cc1 (stereo unspecified)	> 100 µM	> 100 µM	> 100 µM	> 100 µM	> 100 µM	> 100 µM	> 100 µM	> 100 µM	> 100 µM	–
CCCC(O)c1cn(C(NC(=O)c2ccccc2)P(=O)(OCC)OCC)nn1 (stereo unspecified)	–	> 100 µM	> 100 µM	> 100 µM	> 100 µM	> 100 µM	> 100 µM	> 100 µM	> 100 µM	> 100 µM
CSC1C(=O)Nc2ccc3ccccc3c21 (stereo unspecified)	> 100 µM	68.3 µM	32.6 µM	33.6 µM	92.4 µM	33.2 µM	60.7 µM	> 100 µM	> 100 µM	–
Cc1ccc(NC(=O)C(Cc2c[nH]c3ccccc23)NC(=O)Oc2ccccc2)cc1C (stereo unspecified)	> 100 µM	> 100 µM	–	> 100 µM	> 100 µM	> 100 µM	80.9 µM	> 100 µM	> 100 µM	88.4 µM
O=C(c1ccccc1)n1cc(-c2ccccc2)c2c(=O)[nH]cnc21	> 100 µM	> 100 µM	> 100 µM	> 100 µM	> 100 µM	> 100 µM	> 100 µM	–	> 100 µM	> 100 µM
O=[N+]([O-])c1ccc(C(Nc2ccccc2)P(c2ccccc2)c2ccccc2)cc1 (stereo unspecified)	> 100 µM	> 100 µM	> 100 µM	> 100 µM	> 100 µM	> 100 µM	–	> 100 µM	> 100 µM	> 100 µM
CC1(C)C(=O)c2ccccc2OC1N1CCN(C2Oc3ccccc3C(=O)C2(C)C)CC1 (stereo unspecified)	> 100 µM	> 100 µM	–	> 100 µM	> 100 µM	> 100 µM	> 100 µM	> 100 µM	–	> 100 µM
O=S(OC12CC3CC(CC(C3)C1)C2)c1cc(Cl)cc(Cl)c1OCc1ccccc1 (stereo unspecified)	> 100 µM	> 100 µM	–	> 100 µM	> 100 µM	> 100 µM	–	> 100 µM	–	> 100 µM
CC(=O)OC(Cc1ccc2ccccc2n1)(C(F)(F)F)C(F)(F)F	33 µM	3.48 µM	6.37 µM	18.2 µM	14.4 µM	7.12 µM	–	18.5 µM	10.9 µM	14.6 µM
CCCCCCCC(CC(=O)NC(CO)C(=O)NC(CO)CC(C)C)OC(=O)CC(CCCCCCC)OC(=O)CC(CCCCCCC)OC1OC(C)C(O)C(OC2OC(C)C(O)C(O)C2OC(C)=O)C1O (stereo unspecified)	30.3 µM	18.7 µM	17.6 µM	20.1 µM	28.9 µM	30.7 µM	–	15.4 µM	21.7 µM	29.4 µM
Cc1ccc2c(=O)c(C(=O)Nn3c(C)csc3=S)c[nH]c2n1	–	> 100 µM	> 100 µM	> 100 µM	> 100 µM	> 100 µM	> 100 µM	> 100 µM	> 100 µM	> 100 µM
